Activity calls are given as the source filed them. The calls are words filed in the database; no cut-off is given here.
How the values were obtained:
THP-1 [1] = assay: Cytotoxicity against human THP1 cells after 24 hrs by MTT assay; format: cell-based; conditions: THP-1, 24 h
[2] = Solubility in water; format: physicochemical
CYP2C9 = CYP2C9 (Homo sapiens, UniProt P11712); assay: Inhibition of CYP2C9 (unknown origin) at 10 uM; format: ADME
[3] = Apparent permeability from apical to basolateral side in human Caco2 cells; format: ADME, cell-based; conditions: Caco-2
[4] = molecular target: Inhibitor of NF-kappa-B kinase (IKK) (Homo sapiens) (UniProt O14920+O15111+Q9Y6K9); assay: Inhibition of IKKbeta expression in human THP1 cells at 20 to 100 uM by Western blotting method; format: functional, cell-based; conditions: THP-1
Mus musculus [5] = assay: Immunosuppressive activity in BALB/c mouse assessed as reduction in SRBC-induced humoral immunity by measuring IgM level at 3 to 30 mg/kg, po administered once daily for 14 days measured 4 hrs post last dose; format: functional, organism-based
Mus musculus [6] = assay: Antiarthritic activity in DBA/1J mouse collagen-induced arthritis model assessed as reduction in anticollagen antibody IgG1 level at 3 to 30 mg/kg, po administered once daily for 49 days starting from onset of disease and measured after 49 days of disease onset by ELISA method; format: functional, organism-based
Mus musculus [7] = assay: Antiinflammatory activity in BALB/c mouse assessed as serum nitric oxide level at 10 mg/kg, po qd for 5 days followed by LPS challenge 1 hr after last compound dose on fifth day and measured 4 hrs post LPS challenge by Griess assay (reference value: 6.95 +/- 1.81 uM); format: functional
Mus musculus [8] = assay: Antiarthritic activity in DBA/1J mouse collagen-induced arthritis model assessed as reduction in anticollagen antibody IgG2a level at 3 to 30 mg/kg, po administered once daily for 49 days starting from onset of disease and measured after 49 days of disease onset by ELISA method; format: functional, organism-based
THP-1 [9] = assay: Cytotoxicity against human THP1 cells after 48 hrs by MTT assay; format: cell-based; conditions: THP-1, 48 h
Mus musculus [10] = assay: Antiinflammatory activity in BALB/c mouse assessed as serum TNFalpha level at 10 mg/kg, po qd for 5 days followed by LPS challenge 1 hr after last compound dose on fifth day and measured 4 hrs post LPS challenge by ELISA method (reference value: 717 +/- 218 pg/mL); format: functional

Sequence of CYP2C9 (P11712 whole entry): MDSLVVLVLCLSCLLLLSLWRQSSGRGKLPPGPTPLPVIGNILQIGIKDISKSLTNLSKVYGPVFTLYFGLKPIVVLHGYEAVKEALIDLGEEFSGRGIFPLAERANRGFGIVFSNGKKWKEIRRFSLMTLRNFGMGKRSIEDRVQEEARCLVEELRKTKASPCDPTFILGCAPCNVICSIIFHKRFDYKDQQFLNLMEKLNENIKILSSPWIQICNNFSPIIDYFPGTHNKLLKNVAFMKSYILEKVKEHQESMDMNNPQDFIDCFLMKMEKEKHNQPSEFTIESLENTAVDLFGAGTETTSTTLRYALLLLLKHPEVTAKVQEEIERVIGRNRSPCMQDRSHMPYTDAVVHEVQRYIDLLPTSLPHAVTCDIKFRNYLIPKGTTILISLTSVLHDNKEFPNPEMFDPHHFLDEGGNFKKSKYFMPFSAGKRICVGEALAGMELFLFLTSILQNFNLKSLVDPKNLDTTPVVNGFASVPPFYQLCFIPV

solubility [2]: > 1500 µg/mL | inhibition at 10 µM (CYP2C9): 32% | Papp A→B [3]: 0.72 ×10⁻⁶ cm/s | inhibition [4]: Active
Compound: CCN(CC)Cc1c(O)c(OC)c(O)c2c1C(=O)O[C@@H]1[C@@H](O)[C@H](O)[C@@H](CO)O[C@@H]21
IC50 (THP-1 [1]): 110 µM | inhibition (Mus musculus [5]): Active | inhibition (Mus musculus [6]): Active | Activity (Mus musculus [7]): 5 µM | inhibition (Mus musculus [8]): Active | IC50 (THP-1 [9]): 77 µM | Activity (Mus musculus [10]): 585 pg/mL
